Laboratory results published in patent publication US10004701B2, “Methods and compositions for treating infection” (UNIVERSITY OF ROCHESTER, priority 2012, dated 2018).
Counter-ions that a name gives are not always drawn. Like-named read-outs stand apart in the source and are kept apart here.

How the values were obtained:
Assay in all cases: AK assay 384-well format, Prestwick library screening
[1] = test system: S. aureus strain USA300-0114; format: cell-based, Staphylococcus aureus; conditions: 50 μM final drug concentration; for fold induction at 50 µM: Staphylococcus aureus, USA300, 3 h
K. pneumoniae = format: cell-based, Klebsiella pneumoniae; conditions: 50 μM final drug concentration; for fold induction at 50 µM: Klebsiella pneumoniae, 3 h
E. faecium = format: cell-based, Enterococcus faecium; conditions: 50 μM final drug concentration; for fold induction at 50 µM: Enterococcus faecium, 3 h
P. aeruginosa = format: cell-based, Pseudomonas aeruginosa; conditions: 50 μM final drug concentration; for fold induction at 50 µM: Pseudomonas aeruginosa, 3 h
[2] = test system: A. baumannii strain 98-37-09; format: cell-based, Acinetobacter baumannii; conditions: 50 μM final drug concentration; for fold induction at 50 µM: Acinetobacter baumannii, 983709, 3 h
E. cloacae = format: cell-based, Enterobacter cloacae; conditions: 50 μM final drug concentration; for fold induction at 50 µM: Enterobacter cloacae, 3 h
E. coli = format: cell-based, Escherichia coli; conditions: 50 μM final drug concentration; for fold induction at 50 µM: Escherichia coli, 3 h
[3] = 384-well format, cutoff for positive-scoring molecules 3-fold increase, read-out: AK-based Prestwick Library Screening Results, S. aureus (increase in extracellular AK activity)
[4] = 384-well format, cutoff for positive-scoring molecules 3-fold increase, read-out: AK-based Prestwick Library Screening Results, K. pneumoniae (increase in extracellular AK activity)
[5] = 384-well format, cutoff for positive-scoring molecules 3-fold increase, read-out: AK-based Prestwick Library Screening Results, E. faecium (increase in extracellular AK activity)
[6] = 384-well format, cutoff for positive-scoring molecules 3-fold increase, read-out: AK-based Prestwick Library Screening Results, P. aeruginosa (increase in extracellular AK activity)
[7] = 384-well format, cutoff for positive-scoring molecules 3-fold increase, read-out: AK-based Prestwick Library Screening Results, A. baumannii (increase in extracellular AK activity)
[8] = 384-well format, cutoff for positive-scoring molecules 3-fold increase, read-out: AK-based Prestwick Library Screening Results, E. cloacae (increase in extracellular AK activity)
[9] = 384-well format, cutoff for positive-scoring molecules 3-fold increase, read-out: AK-based Prestwick Library Screening Results, E. coli (increase in extracellular AK activity)
[10] = planktonic S. aureus, 384-well, cutoff for positive-scoring molecules 3-fold increase, read-out: AK-based Prestwick Library Screening Results: S. aureus (increase in extracellular AK activity)
[11] = planktonic K. pneumoniae, 384-well, cutoff for positive-scoring molecules 3-fold increase, read-out: AK-based Prestwick Library Screening Results: K. pneumoniae (increase in extracellular AK activity)
[12] = planktonic E. faecium, 384-well, cutoff for positive-scoring molecules 3-fold increase, read-out: AK-based Prestwick Library Screening Results: E. faecium (increase in extracellular AK activity)
[13] = planktonic P. aeruginosa, 384-well, cutoff for positive-scoring molecules 3-fold increase, read-out: AK-based Prestwick Library Screening Results: P. aeruginosa (increase in extracellular AK activity)
[14] = planktonic A. baumannii, 384-well, cutoff for positive-scoring molecules 3-fold increase, read-out: AK-based Prestwick Library Screening Results: A. baumannii (increase in extracellular AK activity)
[15] = planktonic E. cloacae, 384-well, cutoff for positive-scoring molecules 3-fold increase, read-out: AK-based Prestwick Library Screening Results: E. cloacae (increase in extracellular AK activity)
[16] = planktonic E. coli, 384-well, cutoff for positive-scoring molecules 3-fold increase, read-out: AK-based Prestwick Library Screening Results: E. coli (increase in extracellular AK activity)
[17] = cutoff for positive-scoring molecules 3-fold increase

C#C[C@]1(O)CC[C@H]2[C@@H]3CCC4=CC(=O)CC[C@@H]4[C@H]3CC[C@@]21C [Norethindrone]
fold induction at 50 µM [1, 3]: 0.8 | fold induction at 50 µM (K. pneumoniae; [4]): 0.7 | fold induction at 50 µM (E. faecium; [5]): 1 | fold induction at 50 µM (P. aeruginosa; [6]): 0.8 | fold induction at 50 µM [2, 7]: 0.7 | fold induction at 50 µM (E. cloacae; [8]): 0.9 | fold induction at 50 µM (E. coli; [9]): 0.7

C#C[C@]1(O)CC[C@H]2[C@@H]3CCC4=C(CCC(=O)C4)[C@H]3CC[C@@]21C [Norethynodrel]
fold induction at 50 µM [1, 3]: 0.7 | fold induction at 50 µM (K. pneumoniae; [4]): 0.7 | fold induction at 50 µM (E. faecium; [5]): 0.9 | fold induction at 50 µM (P. aeruginosa; [6]): 0.8 | fold induction at 50 µM [2, 7]: 0.7 | fold induction at 50 µM (E. cloacae; [8]): 1 | fold induction at 50 µM (E. coli; [9]): 0.9

CCn1cc(C(=O)O)c(=O)c2cc(F)c(N3CCNCC3)cc21 [Norfloxacin]
fold induction at 50 µM [1, 10]: 1.8 | fold induction at 50 µM (K. pneumoniae; [11]): 0.8 | fold induction at 50 µM (E. faecium; [12]): 1.5 | fold induction at 50 µM (P. aeruginosa; [13]): 31.3 | fold induction at 50 µM [2, 14]: 3.1 | fold induction at 50 µM (E. cloacae; [15]): 3.1 | fold induction at 50 µM (E. coli; [16]): 33.1

C#C[C@]1(O)CC[C@H]2[C@@H]3CCC4=CC(=O)CC[C@@H]4[C@H]3CC[C@@]21CC [Norgestrel-(−)-D]
AK-based Prestwick Library Screening Results, S. aureus (fold increase in extracellular AK activity) [1, 17]: 1.1 | AK-based Prestwick Library Screening Results, K. pneumoniae (fold increase in extracellular AK activity) (K. pneumoniae; [17]): 1.1 | AK-based Prestwick Library Screening Results, E. faecium (fold increase in extracellular AK activity) (E. faecium; [17]): 1.0 | AK-based Prestwick Library Screening Results, P. aeruginosa (fold increase in extracellular AK activity) (P. aeruginosa; [17]): 1.1 | AK-based Prestwick Library Screening Results, A. baumannii (fold increase in extracellular AK activity) [2, 17]: 1.1 | AK-based Prestwick Library Screening Results, E. cloacae (fold increase in extracellular AK activity) (E. cloacae; [17]): 1.7 | AK-based Prestwick Library Screening Results, E. coli (fold increase in extracellular AK activity) (E. coli; [17]): 1.0

CNCCC=C1c2ccccc2CCc2ccccc21 [Nortriptyline hydrochloride]
fold induction at 50 µM [1, 3]: 1 | fold induction at 50 µM (K. pneumoniae; [4]): 0.7 | fold induction at 50 µM (E. faecium; [5]): 0.9 | fold induction at 50 µM (P. aeruginosa; [6]): 0.8 | fold induction at 50 µM [2, 7]: 0.9 | fold induction at 50 µM (E. cloacae; [8]): 0.9 | fold induction at 50 µM (E. coli; [9]): 0.9

COc1ccc2c(c1OC)C(=O)O[C@@H]2[C@H]1c2c(cc3c(c2OC)OCO3)CCN1C [Noscapine]
fold induction at 50 µM [1, 10]: 0.5 | fold induction at 50 µM (K. pneumoniae; [11]): 0.5 | fold induction at 50 µM (E. faecium; [12]): 0.9 | fold induction at 50 µM (P. aeruginosa; [13]): 0.5 | fold induction at 50 µM [2, 14]: 0.6 | fold induction at 50 µM (E. cloacae; [15]): 0.6 | fold induction at 50 µM (E. coli; [16]): 0.6

CO[C@@H]1[C@@H](OC(N)=O)[C@@H](O)[C@H](Oc2ccc3c(O)c(NC(=O)c4ccc(O)c(CC=C(C)C)c4)c(=O)oc3c2C)OC1(C)C [Novobiocin sodium salt]
fold induction at 50 µM ([1]; planktonic, cutoff for positive-scoring molecules 3-fold increase, read-out: AK-based Prestwick Library Screening Results, S. aureus (fold increase in extracellular AK activity)): 4.5 | fold induction at 50 µM (K. pneumoniae; planktonic, cutoff for positive-scoring molecules 3-fold increase, read-out: AK-based Prestwick Library Screening Results, K. pneumoniae (fold increase in extracellular AK activity)): 0.7 | fold induction at 50 µM (E. faecium; planktonic, cutoff for positive-scoring molecules 3-fold increase, read-out: AK-based Prestwick Library Screening Results, E. faecium (fold increase in extracellular AK activity)): 1.5 | fold induction at 50 µM (P. aeruginosa; planktonic, cutoff for positive-scoring molecules 3-fold increase, read-out: AK-based Prestwick Library Screening Results, P. aeruginosa (fold increase in extracellular AK activity)): 1 | fold induction at 50 µM ([2]; planktonic, cutoff for positive-scoring molecules 3-fold increase, read-out: AK-based Prestwick Library Screening Results, A. baumannii (fold increase in extracellular AK activity)): 1.1 | fold induction at 50 µM (E. cloacae; planktonic, cutoff for positive-scoring molecules 3-fold increase, read-out: AK-based Prestwick Library Screening Results, E. cloacae (fold increase in extracellular AK activity)): 1.6 | fold induction at 50 µM (E. coli; planktonic, cutoff for positive-scoring molecules 3-fold increase, read-out: AK-based Prestwick Library Screening Results, E. coli (fold increase in extracellular AK activity)): 3.2

C[C@@H]1[C@H](O)[C@@H](C)/C=C/C=C/CC/C=C/C=C/C=C/C=C/C(O[C@H]2O[C@H](C)[C@@H](O)[C@H](N)[C@@H]2O)CC2O[C@](O)(CC(O)C(O)CCC(O)CC(O)CC(O)CC(=O)O[C@H]1C)CC(O)C2C(=O)O (some centres unmarked) [Nystatine]
AK-based Prestwick Library Screening Results, S. aureus (increase in extracellular AK activity) ([1]; planktonic S. aureus, […]): 0.7 | AK-based Prestwick Library Screening Results, K. pneumoniae (increase in extracellular AK activity) (K. pneumoniae; planktonic K. pneumoniae, […]): 0.8 | AK-based Prestwick Library Screening Results, E. faecium (increase in extracellular AK activity) (E. faecium; planktonic E. faecium, […]): 0.8 | AK-based Prestwick Library Screening Results, P. aeruginosa (increase in extracellular AK activity) (P. aeruginosa; planktonic P. aeruginosa, […]): 0.8 | AK-based Prestwick Library Screening Results, A. baumannii (increase in extracellular AK activity) ([2]; planktonic A. baumannii, […]): 0.9 | AK-based Prestwick Library Screening Results, E. cloacae (increase in extracellular AK activity) (E. cloacae; planktonic E. cloacae, […]): 1.4 | AK-based Prestwick Library Screening Results, E. coli (increase in extracellular AK activity) (E. coli; planktonic E. coli, […]): 1.0

CC1COc2c(N3CCN(C)CC3)c(F)cc3c(=O)c(C(=O)O)cn1c23 (centres unmarked) [Ofloxacin]
fold induction at 50 µM [1, 10]: 2.8 | fold induction at 50 µM (K. pneumoniae; [11]): 1 | fold induction at 50 µM (E. faecium; [12]): 1.4 | fold induction at 50 µM (P. aeruginosa; [13]): 20 | fold induction at 50 µM [2, 14]: 3.7 | fold induction at 50 µM (E. cloacae; [15]): 4.1 | fold induction at 50 µM (E. coli; [16]): 15.7

CO[C@H]1C[C@H](O[C@H]2[C@H](C)[C@@H](O[C@@H]3O[C@H](C)C[C@H](N(C)C)[C@H]3O)[C@@H](C)C[C@@]3(CO3)C(=O)[C@H](C)[C@@H](O)[C@@H](C)[C@@H](C)OC(=O)[C@@H]2C)O[C@@H](C)[C@@H]1O [Oleandomycin phosphate]
fold induction at 50 µM [1, 10]: 3.6 | fold induction at 50 µM (K. pneumoniae; [11]): 1 | fold induction at 50 µM (E. faecium; [12]): 1 | fold induction at 50 µM (P. aeruginosa; [13]): 1 | fold induction at 50 µM [2, 14]: 1.1 | fold induction at 50 µM (E. cloacae; [15]): 1.6 | fold induction at 50 µM (E. coli; [16]): 1.1

COc1ccc2[nH]c([S+]([O-])Cc3ncc(C)c(OC)c3C)nc2c1 (centres unmarked) [Omeprazole]
fold induction at 50 µM ([1]; planktonic S. aureus, cutoff for positive-scoring molecules 3-fold increase, read-out: AK-based Prestwick Library Screening Results, S. aureus (increase in extracellular AK activity)): 0.2 | fold induction at 50 µM (K. pneumoniae; planktonic K. pneumoniae, cutoff for positive-scoring molecules 3-fold increase, read-out: AK-based Prestwick Library Screening Results, K. pneumoniae (increase in extracellular AK activity)): 0.6 | fold induction at 50 µM (E. faecium; planktonic E. faecium, cutoff for positive-scoring molecules 3-fold increase, read-out: AK-based Prestwick Library Screening Results, E. faecium (increase in extracellular AK activity)): 0.8 | fold induction at 50 µM (P. aeruginosa; planktonic P. aeruginosa, cutoff for positive-scoring molecules 3-fold increase, read-out: AK-based Prestwick Library Screening Results, P. aeruginosa (increase in extracellular AK activity)): 0.6 | fold induction at 50 µM ([2]; planktonic A. baumannii, cutoff for positive-scoring molecules 3-fold increase, read-out: AK-based Prestwick Library Screening Results, A. baumannii (increase in extracellular AK activity)): 0.8 | fold induction at 50 µM (E. cloacae; planktonic E. cloacae, cutoff for positive-scoring molecules 3-fold increase, read-out: AK-based Prestwick Library Screening Results, E. cloacae (increase in extracellular AK activity)): 0.8 | fold induction at 50 µM (E. coli; planktonic E. coli, cutoff for positive-scoring molecules 3-fold increase, read-out: AK-based Prestwick Library Screening Results, E. coli (increase in extracellular AK activity)): 0.7
